Source: patent US20110178104A1, “Anti-Heparin Compounds” (POLYMEDIX INC., priority 2010, published 2011)
Read-outs that look alike come from different tables or passages of the source. Starred links: 1 amine or outer side, 2 acyl side, 3 side chain; linkers in the order of their positions; H or OH if unused. Non-standard residues stand in square brackets, D forms with d. Residues, ends and D or L forms follow the SMILES beside them. *: point of attachment. NH(3-CONH2-4-OMe-phenyl) = COc1ccc(N*)cc1C(N)=O; 3Abz(6-OMe) = COc1ccc(N[*:1])cc1C(=O)[*:2]; dOrn = NCCC[C@@H](N)C(=O)O

How the values were obtained:
enoxaparin (ENOX) = assay: FXa chromogenic assay (absence of plasma), enoxaparin
fondaparinux (FONDAPX) = assay: FXa chromogenic assay (absence of plasma), fondaparinux
[1] = test system: unfractionated heparin (UFH); assay: aPTT clotting assay, UFH 0.2 U/mL in plasma (Example 7); format: biochemical
Procedure: aPTT clotting Assay. Unfractionated heparin was mixed with plasma at a final concentration of 0.2 U/mL. […] The ACL Elite Hemostasis analyzer (Beckman Coulter™) was used to add aPTT reagent (HemosIL SynthASil) to supplemented plasma. Clotting was initiated by addition of CaCl2 and time to clot was recorded.

[2] = enoxaparin 0.1 μg/mL, absence of plasma
[3] = fondaparinux 0.02 μg/mL, absence of plasma

COc1ccc(NC(=O)[C@H](CCCCN)NC(=O)c2cc(NC(=O)[C@H](CCCCN)NC(=O)c3cc(NC(=O)[C@H](CCCCN)NC(=O)c4cc(NC(=O)[C@@H](N)CCCCN)ccc4OC)ccc3OC)ccc2OCC(=O)O)cc1C(N)=O [Compound 117]
ENOX (FXa) EC50 (enoxaparin (ENOX); [2]): 0.9281 µg/mL | FONDAPX (FXa) EC50 (fondaparinux (FONDAPX); [3]): 7.052 µg/mL | UFH (aPTT) EC50 ([1]; UFH 0.2 U/mL in plasma): 1.94 µg/mL

COc1ccc(NC(=O)[C@H](CCCCN)NC(=O)c2cc(NC(=O)[C@H](CCCNC(N)=O)NC(=O)c3cc(NC(=O)[C@H](CCCCN)NC(=O)c4cc(NC(=O)[C@@H](N)CCCCN)ccc4OC)ccc3OC)ccc2OC)cc1C(N)=O [Compound 139]
ENOX (FXa) EC50 (enoxaparin (ENOX); [2]): 0.3196 µg/mL | FONDAPX (FXa) EC50 (fondaparinux (FONDAPX); [3]): 2.485 µg/mL | UFH (aPTT) EC50 ([1]; UFH 0.2 U/mL in plasma): 2.46 µg/mL

COc1ccc(NC(=O)[C@@H](CCCN)NC(=O)[C@@H](CCCN)NC(=O)c2cc(NC(=O)[C@@H](CCCN)NC(=O)c3cc(NC(=O)[C@@H](CCCNC(=N)N)NC(=O)c4cc(NC(=O)[C@H](N)CCCN)ccc4OC)ccc3OC)ccc2OC)cc1C(N)=O [Compound 46] (H-[dOrn][3Abz(6-OMe)][dR][3Abz(6-OMe)][dOrn][3Abz(6-OMe)][dOrn][dOrn]-{NH(3-CONH2-4-OMe-phenyl)})
ENOX (FXa) EC50 (enoxaparin (ENOX); [2]): 13.76 µg/mL | FONDAPX (FXa) EC50 (fondaparinux (FONDAPX); [3]): 76.88 µg/mL | UFH (aPTT) EC50 ([1]; UFH 0.2 U/mL in plasma): inactive

COc1ccc(NC(=O)[C@@H](CCCN)NC(=O)c2cc(NC(=O)[C@@H](CCCNC(=N)N)NC(=O)c3cc(NC(=O)[C@@H](CCCNC(=N)N)NC(=O)c4cc(NC(=O)[C@H](N)CCCN)ccc4OC)ccc3OC)ccc2OC)cc1C(N)=O [Compound 30]
ENOX (FXa) EC50 (enoxaparin (ENOX)): 0.28 µg/mL | FONDAPX (FXa) EC50 (fondaparinux (FONDAPX)): 3.99 µg/mL | UFH (aPTT) EC50 [1]: 1.52 µg/mL

COc1ccc(NC(=O)[C@H](CCCNC(=N)N)NC(=O)c2cc(NC(=O)[C@@H](N)CCCNC(=N)N)ccc2OC)cc1C(=O)N[C@@H](CCCNC(=N)N)C(=O)Nc1ccc(OC)c(C(=O)N[C@@H](CCCNC(=N)N)C(=O)Nc2ccc(OC)c(C(=O)N3CCCC3C(N)=O)c2)c1 (stereo partly drawn) [Compound 123]
ENOX (FXa) EC50 (enoxaparin (ENOX); [2]): 1.934 µg/mL | FONDAPX (FXa) EC50 (fondaparinux (FONDAPX); [3]): inactive | UFH (aPTT) EC50 ([1]; UFH 0.2 U/mL in plasma): >10 µg/mL

CSc1ccc(NC(=O)[C@H](CCCNC(=N)N)NC(=O)c2cc(NC(=O)[C@H](CCCNC(=N)N)NC(=O)c3cc(NC(=O)[C@H](CCCNC(=N)N)NC(=O)c4cc(NC(=O)[C@@H](N)CCCNC(=N)N)ccc4SC)ccc3SC)ccc2SC)cc1C(N)=O [Compound 97]
ENOX (FXa) EC50 (enoxaparin (ENOX); [2]): 0.9842 µg/mL | FONDAPX (FXa) EC50 (fondaparinux (FONDAPX); [3]): >20 µg/mL | UFH (aPTT) EC50 ([1]; UFH 0.2 U/mL in plasma): >10 µg/mL

N=C(N)NCCC[C@@H](N)C(=O)Nc1ccc(Cl)c(C(=O)N[C@H](CCCNC(=N)N)C(=O)Nc2ccc(Cl)c(C(=O)N[C@H](CCCNC(=N)N)C(=O)Nc3ccc(Cl)c(C(=O)N[C@H](CCCNC(=N)N)C(=O)Nc4ccc(Cl)c(C(N)=O)c4)c3)c2)c1 [Compound 26]
ENOX (FXa) EC50 (enoxaparin (ENOX); [2]): 3.93 µg/mL | FONDAPX (FXa) EC50 (fondaparinux (FONDAPX); [3]): 36.65 µg/mL | UFH (aPTT) EC50 ([1]; UFH 0.2 U/mL in plasma): 4.26 µg/mL

COc1c(NC(=O)[C@@H](CCCCN)NC(=O)c2cccc(NC(=O)[C@@H](CCCCN)NC(=O)c3cccc(NC(=O)[C@@H](CCCCN)NC(=O)c4cccc(NC(=O)[C@H](N)CCCCN)c4OC)c3OC)c2OC)cccc1C(N)=O [Compound 34]
ENOX (FXa) EC50 (enoxaparin (ENOX); [2]): 45.00 µg/mL | FONDAPX (FXa) EC50 (fondaparinux (FONDAPX); [3]): inactive | UFH (aPTT) EC50 ([1]; UFH 0.2 U/mL in plasma): inactive

COc1ccc(C(=O)N[C@H](CCCCN)C(=O)Nc2cc(C(=O)N[C@H](CCCCN)C(=O)Nc3cc(C(=O)N[C@H](CCCCN)C(=O)Nc4cc(C(N)=O)ccc4OC)ccc3OC)ccc2OC)cc1NC(=O)[C@H](N)CCCCN [Compound 35]
ENOX (FXa) EC50 (enoxaparin (ENOX); [2]): 45.00 µg/mL | FONDAPX (FXa) EC50 (fondaparinux (FONDAPX); [3]): inactive | UFH (aPTT) EC50 ([1]; UFH 0.2 U/mL in plasma): 30.65 µg/mL

COc1ccc(NC(=O)[C@H](CCCCN)NC(=O)c2cc(NC(=O)[C@H](CCCCN)NC(=O)c3cc(NC(=O)[C@H](CCCCN)NC(=O)c4cc(NC(=O)[C@@H](N)CCCNC(N)=O)ccc4OC)ccc3OC)ccc2OC)cc1C(N)=O [Compound 137]
ENOX (FXa) EC50 (enoxaparin (ENOX); [2]): 0.3761 µg/mL | FONDAPX (FXa) EC50 (fondaparinux (FONDAPX); [3]): 4.025 µg/mL | UFH (aPTT) EC50 ([1]; UFH 0.2 U/mL in plasma): 2.00 µg/mL

COc1cc(OC)c(C(=O)N[C@H]2CC[C@@H](NC(=O)c3cc(C(=O)NCCN(C)C)c(OCCCCCNC(=N)N)cc3OCCCCCNC(=N)N)CC2)cc1C(=O)N[C@H]1CC[C@@H](NC(=O)c2cc(C(=O)NCCN(C)C)c(OCCCCCNC(=N)N)cc2OCCCCCNC(=N)N)CC1 [Compound 103]
ENOX (FXa) EC50 (enoxaparin (ENOX); [2]): 0.23 µg/mL | FONDAPX (FXa) EC50 (fondaparinux (FONDAPX); [3]): 0.64 µg/mL | UFH (aPTT) EC50 ([1]; UFH 0.2 U/mL in plasma): >4 µg/mL

CN(C)CCNC(=O)c1cc(C(=O)NCCN(C)C)c(OCCCCCN)cc1OCCCCCN [Compound 4]
ENOX (FXa) EC50 (enoxaparin (ENOX); [2]): 47.94 µg/mL | FONDAPX (FXa) EC50 (fondaparinux (FONDAPX); [3]): 84.66 µg/mL | UFH (aPTT) EC50 ([1]; UFH 0.2 U/mL in plasma): inactive
